Laboratory results as given in patent US11739101B2, “Bifunctional degraders of hematopoietic progenitor kinase and therapeutic uses thereof” (Nurix Therapeutics, Inc., priority 2020, dated 2023).

target: T1, HPK1 (Homo sapiens, UniProt Q92918); assay: HPK1 Cellular HiBiT Degradation Assay; format: cell-based; conditions: HiBiT-tagged HPK1 Jurkat cells, 24 hours, 10 uM to 0.1 nM; Dmax = 100 minus lowest % HPK1 remaining vs DMSO vehicle
T1 construct: A HiBiT tag was introduced by CRISPR on the N terminus of HPK1 in Jurkat cells; host or cells: Jurkat (ATCC TIB-152), monoclonal CRISPR HiBiT knock-in line
In short: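 Dmax is derived from four-parameter curves of % HPK1 remaining, as 100 minus the lowest value, normalized to DMSO-treated cells with parental Jurkat background subtracted. HiBiT-HPK1 knock-in Jurkat cells got compound for 24 hours (final 10 uM to 0.1 nM, 11 points) before lytic HiBiT luminescence. Cytotoxicity was checked on parallel CellTiter-Glo plates.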

T1 sequence (Q92918 whole entry): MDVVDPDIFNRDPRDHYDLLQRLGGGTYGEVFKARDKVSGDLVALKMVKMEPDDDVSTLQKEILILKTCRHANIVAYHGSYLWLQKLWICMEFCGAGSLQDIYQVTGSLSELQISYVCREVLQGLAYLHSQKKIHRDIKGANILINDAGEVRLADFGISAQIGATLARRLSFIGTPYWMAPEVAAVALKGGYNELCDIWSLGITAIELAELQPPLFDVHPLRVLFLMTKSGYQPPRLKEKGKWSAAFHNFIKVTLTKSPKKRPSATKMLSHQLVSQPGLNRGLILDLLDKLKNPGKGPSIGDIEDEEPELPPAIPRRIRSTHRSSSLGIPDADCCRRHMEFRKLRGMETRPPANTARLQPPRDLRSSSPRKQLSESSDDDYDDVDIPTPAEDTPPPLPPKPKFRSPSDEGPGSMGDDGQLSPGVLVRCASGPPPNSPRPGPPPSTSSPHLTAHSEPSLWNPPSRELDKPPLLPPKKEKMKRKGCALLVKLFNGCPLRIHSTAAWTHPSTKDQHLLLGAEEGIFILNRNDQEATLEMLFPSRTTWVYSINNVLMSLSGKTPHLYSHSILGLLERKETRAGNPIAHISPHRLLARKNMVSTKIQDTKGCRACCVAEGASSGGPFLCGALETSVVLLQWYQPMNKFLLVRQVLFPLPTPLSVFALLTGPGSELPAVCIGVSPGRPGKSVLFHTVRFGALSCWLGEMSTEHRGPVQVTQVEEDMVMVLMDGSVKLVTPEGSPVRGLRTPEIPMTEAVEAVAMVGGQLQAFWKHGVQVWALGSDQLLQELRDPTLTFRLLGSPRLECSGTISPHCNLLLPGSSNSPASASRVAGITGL

Row | Structure (SMILES) | Dmax
1 | Cc1cc(F)c(Nc2nc(-c3ccc4c(c3)N([C@H]3C[C@@H](N5CCCCC5)C3)C(=O)C43CCN(C(=O)CCC4CCN(CC(=O)N[C@H](C(=O)N5C[C@H](O)C[C@H]5C(=O)N[C@@H](C)c5ccc(-c6scnc6C)cc5)C(C)(C)C)CC4)CC3)cc3ncn(C(C)C)c23)cc1C(=O)NC(C)C [Example 14, (2S,4R)-1-((S)-2-(2-(4-(3-(6-(4-((2-fluoro-5-(isopropylcarbamoyl)-4-methylphenyl)amino)-3-isopropyl-3H-imidazo[4,5-c]pyridin-6-yl)-2-oxo-1-((1s,3s)-3-(piperidin-1-yl)cyclobutyl)spiro[indoline-3,4′-piperidin]-1′-yl)-3-oxopropyl)piperidin-1-yl)acetamido)-3,3-dimethylbutanoyl)-4-hydroxy-N—((S)-1-(4-(4-methylthiazol-5-yl)phenyl)ethyl)pyrrolidine-2-carboxamide] | 45 to 65%
2 | Cc1cc(F)c(Nc2nc(-c3ccc4c(c3)N([C@H]3C[C@@H](N5CCCCC5)C3)C(=O)C43CCN(C(=O)[C@H]4CCN(C(=O)[C@H]5CC[C@H](Nc6cccc7c6C(=O)N(C6CCC(=O)NC6=O)C7=O)CC5)C4)CC3)cc3ncn(C(C)C)c23)cc1C(=O)NC(C)C (stereo partly drawn) [Example 87, 5-((6-(1′-((3S)-1-((1R,4S)-4-((2-(2,6-dioxopiperidin-3-yl)-1,3-dioxoisoindolin-4-yl)amino)cyclohexane-1-carbonyl)pyrrolidine-3-carbonyl)-2-oxo-1-((1s,3R)-3-(piperidin-1-yl)cyclobutyl)spiro[indoline-3,4′-piperidin]-6-yl)-3-isopropyl-3H-imidazo[4,5-c]pyridin-4-yl)amino)-4-fluoro-N-isopropyl-2-methylbenzamide] | < 45%
3 | Cc1cc(F)c(Nc2nc(-c3ccc4c(c3)N([C@H]3C[C@@H](N5CCCCC5)C3)C(=O)C43CCN(C(=O)C4CCN(C(=O)C5CCN(C(=O)CNc6cccc7c6C(=O)N(C6CCC(=O)NC6=O)C7=O)CC5)C4)CC3)cc3ncn(C(C)C)c23)cc1C(=O)NC(C)C (stereo partly shown) [Example 49] | 45 to 65%
4 | Cc1cc(F)c(Nc2nc(-c3ccc4c(c3)N(C3CC(N5CCCCC5)C3)C(=O)C43CCN(C(=O)[C@@H]4CCN(C(=O)[C@H]5CC[C@H](Oc6cccc7c6C(=O)N(C6CCC(=O)NC6=O)C7=O)CC5)C4)CC3)cc3ncn(C(C)C)c23)cc1C(=O)NC(C)C (stereo partly drawn) [Example 54, 4-fluoro-2-methyl-5-[(6-{2-oxo-1′-[(3R)-1-[(1R,4R)-4-{[2-(2,6-dioxopiperidin-3-yl)-1,3-dioxo-2,3-dihydro-1H-isoindol-4-yl]oxy}cyclohexanecarbonyl]pyrrolidine-3-carbonyl]-1-[(1s,3s)-3-(piperidin-1-yl)cyclobutyl]-1,2-dihydrospiro[indole-3,4′-piperidin]-6-yl}-3-(propan-2-yl)-3H-imidazo[4,5-c]pyridin-4-yl)amino]-N-(propan-2-yl)benzamide] | < 45%
5 | Cc1cc(F)c(Nc2nc(-c3ccc4c(c3)N([C@H]3C[C@@H](N5CCCCC5)C3)C(=O)C43CCN(CCOCCOCCOCCOCCOCCOCCOCCNc4cccc5c4C(=O)N(C4CCC(=O)NC4=O)C5=O)CC3)cc3ncn(C(C)C)c23)cc1C(=O)NC(C)C (stereo partly shown) [Example 43, 5-[(6-{1′-[23-({2-[2,6-dioxopiperidin-3-yl]-1,3-dioxo-2,3-dihydro-1H-isoindol-4-yl}amino)-3,6,9,12,15,18,21-heptaoxatricosan-1-yl]-2-oxo-1-[(1s,3s)-3-(piperidin-1-yl)cyclobutyl]-1,2-dihydrospiro[indole-3,4′-piperidin]-6-yl}-3-(propan-2-yl)-3H-imidazo[4,5-c]pyridin-4-yl)amino]-4-fluoro-2-methyl-N-(propan-2-yl)benzamide] | > 65%
6 | Cc1cc(F)c(Nc2nc(-c3ccc4c(c3)N([C@H]3C[C@@H](N5CCCCC5)C3)C(=O)C43CCN(C(=O)c4ccc(C5CCN(CC(=O)NCCNc6cccc7c6C(=O)N(C6CCC(=O)NC6=O)C7=O)CC5)cc4)CC3)cc3ncn(C(C)C)c23)cc1C(=O)NC(C)C (stereo partly shown) [Example 88, 5-[(6-{1′-[4-(1-{[(2-{[2-(2,6-dioxopiperidin-3-yl)-1,3-dioxoisoindol-4-yl]amino}ethyl)carbamoyl]methyl}piperidin-4-yl)benzoyl]-2-oxo-1-[(1s,3s)-3-(piperidin-1-yl)cyclobutyl]spiro[indole-3,4′-piperidin]-6-yl}-3-isopropylimidazo[4,5-c]pyridin-4-yl)amino]-4-fluoro-N-isopropyl-2-methylbenzamide] | > 65%
7 | Cc1cc(F)c(Nc2nc(-c3ccc4c(c3)N([C@H]3C[C@@H](N5CCCCC5)C3)C(=O)C43CCN(C(=O)CCCCCCCOc4cc(-c5scnc5C)ccc4CNC(=O)[C@@H]4C[C@@H](O)CN4C(=O)[C@@H](NC(=O)C4(F)CC4)C(C)(C)C)CC3)cc3ncn(C(C)C)c23)cc1C(=O)NC(C)C [Example 13, (2S,4R)—N-(2-((8-(6-(4-((2-fluoro-5-(isopropylcarbamoyl)-4-methylphenyl)amino)-3-isopropyl-3H-imidazo[4,5-c]pyridin-6-yl)-2-oxo-1-((1s,3s)-3-(piperidin-1-yl)cyclobutyl)spiro[indoline-3,4′-piperidin]-1′-yl)-8-oxooctyl)oxy)-4-(4-methylthiazol-5-yl)benzyl)-1-((S)-2-(1-fluorocyclopropane-1-carboxamido)-3,3-dimethylbutanoyl)-4-hydroxypyrrolidine-2-carboxamide] | < 45%
8 | Cc1cc(F)c(Nc2nc(-c3ccc4c(c3)N([C@H]3C[C@@H](N5CCCCC5)C3)C(=O)C43CCN(C(=O)[C@@H]4CCN(C(=O)C[C@H]5CC[C@H](Nc6cccc7c6C(=O)N(C6CCC(=O)NC6=O)C7=O)CC5)C4)CC3)cc3ncn(C(C)C)c23)cc1C(=O)NC(C)C (stereo partly drawn) [Example 82, 5-((6-(1′-((3R)-1-(2-((1R,4R)-4-((2-(2,6-dioxopiperidin-3-yl)-1,3-dioxoisoindolin-4-yl)amino)cyclohexyl)acetyl)pyrrolidine-3-carbonyl)-2-oxo-1-((1s,3s)-3-(piperidin-1-yl)cyclobutyl)spiro[indoline-3,4′-piperidin]-6-yl)-3-isopropyl-3H-imidazo[4,5-c]pyridin-4-yl)amino)-4-fluoro-N-isopropyl-2-methylbenzamide] | 45 to 65%

The next lines start with the values.

Row | Dmax | Structure (SMILES)
9 | < 45% | Cc1cc(F)c(Nc2nc(-c3ccc4c(c3)N([C@H]3C[C@@H](N5CCCCC5)C3)C(=O)C43CCN(C(=O)c4ccc(N5CCN(c6ccc7c(c6)C(=O)N(C6CCC(=O)NC6=O)C7=O)CC5)nc4)CC3)cc3ncn(C(C)C)c23)cc1C(=O)NC(C)C (stereo partly shown) [Example 85, 5-((6-(1′-(6-(4-(2-(2,6-dioxopiperidin-3-yl)-1,3-dioxoisoindolin-5-yl)piperazin-1-yl)nicotinoyl)-2-oxo-1-((1s,3s)-3-(piperidin-1-yl)cyclobutyl)spiro[indoline-3,4′-piperidin]-6-yl)-3-isopropyl-3H-imidazo[4,5-c]pyridin-4-yl)amino)-4-fluoro-N-isopropyl-2-methylbenzamide]
10 | < 45% | Cc1cc(F)c(Nc2nc(-c3ccc4c(c3)N([C@H]3C[C@@H](N5CCCCC5)C3)C(=O)C43CCN(C(=O)c4ccc(S(=O)(=O)N5CCN(c6ccc7c(c6)C(=O)N(C6CCC(=O)NC6=O)C7=O)CC5)cc4)CC3)cc3ncn(C(C)C)c23)cc1C(=O)NC(C)C (stereo partly shown) [Example 58, 5-[(6-{1′-[4-({4-[2-(2,6-dioxopiperidin-3-yl)-1,3-dioxo-2,3-dihydro-1H-isoindol-5-yl]piperazin-1-yl}sulfonyl)benzoyl]-2-oxo-1-[(1s,3s)-3-(piperidin-1-yl)cyclobutyl]-1,2-dihydrospiro[indole-3,4′-piperidin]-6-yl}-3-(propan-2-yl)-3H-imidazo[4,5-c]pyridin-4-yl)amino]-4-fluoro-2-methyl-N-(propan-2-yl)benzamide]
11 | 45 to 65% | Cc1cc(F)c(Nc2nc(-c3ccc4c(c3)N([C@H]3C[C@@H](N5CCCCC5)C3)C(=O)C43CCN(C(=O)CC4CCCN(CC5CCN(c6ccc7c(c6)C(=O)N(C6CCC(=O)NC6=O)C7=O)C5)C4)CC3)cc3ncn(C(C)C)c23)cc1C(=O)NC(C)C (stereo partly drawn) [Example 29, 5-{[6-(1′-{2-[(3S)-1-({1-[2-(2,6-dioxopiperidin-3-yl)-1,3-dioxo-2,3-dihydro-1H-isoindol-5-yl]pyrrolidin-3-yl}Methyl)piperidin-3-yl]acetyl}-2-oxo-1-[(1s,3s)-3-(piperidin-1-yl)cyclobutyl]-1,2-dihydrospiro[indole-3,4′-piperidin]-6-yl)-3-(propan-2-yl)-3H-imidazo[4,5-c]pyridin-4-yl]amino}-4-fluoro-2-methyl-N-(propan-2-yl)benzamide]
12 | < 45% | Cc1cc(F)c(Nc2nc(-c3ccc4c(c3)N([C@H]3C[C@@H](N5CCCCC5)C3)C(=O)C43CCN(C(=O)CN4CCN(CCCc5cccc6c5C(=O)N(C5CCC(=O)NC5=O)C6=O)CC4)CC3)cc3ncn(C(C)C)c23)cc1C(=O)NC(C)C (stereo partly shown) [Example 21, 5-{[6-(1′-{2-[4-(3-{2-[2,6-dioxopiperidin-3-yl]-1,3-dioxo-2,3-dihydro-1H-isoindol-4-yl}propyl)piperazin-1-yl]acetyl}-2-oxo-1-[(1s,3s)-3-(piperidin-1-yl)cyclobutyl]-1,2-dihydrospiro[indole-3,4′-piperidin]-6-yl)-3-(propan-2-yl)-3H-imidazo[4,5-c]pyridin-4-yl]amino}-4-fluoro-2-methyl-N-(propan-2-yl)benzamide]
13 | 45 to 65% | Cc1cc(F)c(Nc2nc(-c3ccc4c(c3)N([C@H]3C[C@@H](N5CCCCC5)C3)C(=O)C43CCN(C(=O)c4cnc(N5CCN(c6cccc7c6C(=O)N(C6CCC(=O)NC6=O)C7=O)CC5)cn4)CC3)cc3ncn(C(C)C)c23)cc1C(=O)NC(C)C (stereo partly shown) [Example 84, 5-((6-(1′-(5-(4-(2-(2,6-dioxopiperidin-3-yl)-1,3-dioxoisoindolin-4-yl)piperazin-1-yl)pyrazine-2-carbonyl)-2-oxo-1-((1s,3s)-3-(piperidin-1-yl)cyclobutyl)spiro[indoline-3,4′-piperidin]-6-yl)-3-isopropyl-3H-imidazo[4,5-c]pyridin-4-yl)amino)-4-fluoro-N-isopropyl-2-methylbenzamide]
